Target: T1, CDK8/Cyclin C (Homo sapiens) (UniProt P49336+P24863)
Experiment: Inhibition of Alexa647 tracer binding to full length recombinant human His-tagged CDK8/Cyclin C expressed in baculovirus expression system at 2.5 uM preincubated for 20 mins followed by tracer addition measured after 60 mins by TR-FRET based Lanthascreen assay relative to control

Row | SMILES | inhibition
1 | CC(=O)Nc1ccc(NC(=O)c2ccc3noc(-c4ccc(Cl)cc4)c3c2)cc1 | 43%
2 | Cc1c(C(=O)Nc2ccc(-n3cnnn3)cc2)nnn1-c1ccc2noc(-c3ccccc3)c2c1 | -2%
3 | CC(=O)Nc1ccc(NC(=O)c2nnn(-c3ccc4noc(-c5ccccc5)c4c3)c2C)cc1 | 59%

Continued, values first:

Row | inhibition | SMILES
4 | 4% | CC(=O)Nc1ccc(NC(=O)c2nnn(-c3ccc4noc(-c5ccc(Cl)cc5)c4c3)c2C)cc1
5 | 19% | Cc1c(C(=O)Nc2cccc(C(F)(F)F)c2)nnn1-c1ccc2noc(-c3ccc(Cl)cc3)c2c1

Target: T1, CDK8/Cyclin C (Homo sapiens)
Experiment: Inhibition of Alexa647 tracer binding to full length recombinant human His-tagged CDK8/Cyclin C expressed in baculovirus expression system at 1 uM preincubated for 20 mins followed by tracer addition measured after 60 mins by TR-FRET based Lanthascreen assay relative to control

Row | SMILES | inhibition
6 | CCNC(=O)c1cn(-c2ccc(SCC(=O)Nc3cccc(C(F)(F)F)c3)nn2)cn1 | 16%
7 | O=C(CSc1ccc(N2CCCC(C(=O)NC3CC3)C2)nn1)Nc1cccc(C(F)(F)F)c1 (stereo not given) | 5%
8 | Cc1cc2nc(CSc3ccc(NC(=O)Nc4cccc(C(F)(F)F)c4)cc3)cc(=O)n2o1 | 59%
9 | O=C(Nc1cccc(C(F)(F)F)c1)Nc1nnc(SCc2nc3ccccc3[nH]c2=O)s1 | 100%
10 | COc1ccc(C(=O)NCc2nnc(SCC(=O)Nc3cccc(C(F)(F)F)c3)o2)cc1OC | 4%
11 | C=CCNC(=O)C1CC(=O)N(c2ccc(OCC(=O)Nc3cccc(C(F)(F)F)c3)cc2)C1 (stereo not given) | 3%
12 | Cc1ccc(Nc2cc(Nc3ccc(NC(=O)Nc4cccc(F)c4)cc3)nc(C)n2)cc1 | 5%
13 | NC(=O)C1CC(=O)N(c2ccc(OCC(=O)Nc3cccc(C(F)(F)F)c3)cc2)C1 (stereo not given) | 12%
14 | C=CCNC(=O)C1CCN(C(=O)Nc2ccc(NC(=O)Nc3cccc(F)c3)cc2)CC1 | 8%
15 | CCc1nnc(NS(=O)(=O)c2ccc(NC(=O)Nc3ccc(Cl)c(Cl)c3)cc2)s1 | 59%
16 | CC(=O)Nc1ccc(NC(=O)Cc2csc(NC(=O)Nc3cccc(Cl)c3)n2)cc1 | 13%

Second part, the molecule after the results:

Row | inhibition | SMILES
17 | 82% | COc1ccc(C(=O)N2CCCN(c3ccc(NC(=O)Nc4cccc(C(F)(F)F)c4)cn3)CC2)cc1
18 | 14% | Cc1nc(Nc2ccc(NC(=O)Nc3cccc(Cl)c3)cc2)cc(N2CCCCC2)n1
19 | 85% | O=C(Nc1cccc(Cl)c1)Nc1nnc(CC(=O)N2CCCC2)s1

Target: T1, CDK8/Cyclin C (Homo sapiens)
Experiment: Inhibition of Alexa647 tracer binding to full length recombinant human His-tagged CDK8/Cyclin C expressed in baculovirus expression system at 0.5 uM preincubated for 20 mins followed by tracer addition measured after 60 mins by TR-FRET based Lanthascreen assay relative to control

Row | SMILES | inhibition
20 | CC(=O)N1CCC2(CC1)CC(=O)c1ccc(OCC(=O)Nc3cccc(C(F)(F)F)c3)cc1O2 | 69%
21 | CN[C@@H]1C[C@H]2O[C@@](C)([C@@H]1OC)n1c3ccccc3c3c4c(c5c6ccccc6n2c5c31)C(=O)NC4 | 100%

Second part, the molecule after the results:

Row | inhibition | SMILES
22 | 61% | Cc1nc(Nc2ccc(NC(=O)Nc3cccc(C(F)(F)F)c3)cc2)cc(N2CCCCC2)n1
23 | 95% | COc1ccc(CC(=O)N2CCN(c3ccc(NC(=O)Nc4cccc(C(F)(F)F)c4)cc3)CC2)cc1
24 | 101% | O=C(NCC1CCN(c2nsc(Cc3ccc(F)cc3)n2)CC1)Nc1ccc(Cl)c(Cl)c1

Target: T1, CDK8/Cyclin C (Homo sapiens)
Experiment: Inhibition of Alexa647 tracer binding to full length recombinant human His-tagged CDK8/Cyclin C expressed in baculovirus expression system at 5 uM preincubated for 20 mins followed by tracer addition measured after 60 mins by TR-FRET based Lanthascreen assay relative to control

Row | SMILES | inhibition
25 | CCC(=O)Nc1nc2cc(NC(=O)c3cc(-c4ccccc4)nc4c(C)cccc34)ccc2s1 | 0%
26 | O=C(OCc1cc(=O)n2nc(C3CC3)sc2n1)c1ccc(NC(=O)c2cccc3ccccc23)cc1 | 0%
27 | O=C(NC1CCCc2ccccc21)C1CCN(C2=CN3C(C=C2)NNC3c2ccc(Cl)cc2)CC1 (stereo not given) | -2%
28 | Cc1ccc(-c2nccc(Nc3cccc(C(=O)NCc4ccc(C(C)C)cc4)c3)n2)cc1 | 2%
29 | CC(=O)c1ccc(NC(=O)COc2cc(-c3ccccc3)nc3ccc(F)cc23)cc1 | 10%
30 | O=C(Nc1ccc(Cl)cc1)N1CCCC(c2cccc(C(=O)N3CCC4(CC3)OCCO4)c2)C1 (stereo not given) | -3%
31 | COc1ccc(-n2nc(C(=O)NCC(=O)N3CCC(Cc4ccccc4)CC3)c3ccccc3c2=O)cc1 | 0%
32 | CC(=O)N1CCC2(CC1)CC(=O)c1ccc(OCC(=O)Nc3cccc(C(F)(F)F)c3)cc1O2 | 95%
33 | CCCc1c(C(=O)Nc2ccc(NC(C)=O)cc2)nnn1-c1ccc2noc(-c3ccccc3)c2c1 | 27%
34 | CC(=O)c1cccc(NC(=O)c2nnn(-c3ccc4noc(-c5ccccc5)c4c3)c2C)c1 | 80%
35 | Cc1c(C(=O)Nc2ccc3ccc(=O)oc3c2)nnn1-c1ccc2noc(-c3ccccc3)c2c1 | 52%
36 | O=C(NC1C2CS(=O)(=O)CC2NN1c1ccc(F)cc1)c1ccc(C(=O)c2ccccc2)cc1 (stereo not given) | 0%
37 | CCc1ccc(-n2c(SCc3ccccc3C)nc3[nH]ncc3c2=O)cc1 | 10%
38 | CN1C(=O)c2ccccc2C(C(=O)Nc2ccc(S(=O)(=O)N3CCCCC3)cc2)C1c1cccs1 (stereo not given) | -6%
39 | O=C(Nc1cccc2ccccc12)c1cccc(C2CSC(S(=O)(=O)N3CCOCC3)C2)c1 (stereo not given) | -1%
40 | CCOC(=O)Cc1ccc(NC(=O)NC(C(=O)N2CCc3ccccc32)c2ccccc2)cc1 (stereo not given) | 16%
41 | CN[C@@H]1C[C@H]2O[C@@](C)([C@@H]1OC)n1c3ccccc3c3c4c(c5c6ccccc6n2c5c31)C(=O)NC4 | 99%
42 | CCCn1c(=O)oc2cc(NC(=O)Nc3cccc(C)c3)ccc21 | 18%
43 | CCn1c(=O)c(=O)n(CC(=O)NCc2ccccc2)c2ccccc21 | -2%
44 | COc1ccc(CNC(=O)Cn2cnc3c(C(N)=O)nsc3c2=O)cc1 | 4%
45 | COc1ccc(OC)c(NC(=O)Nc2ccc(Cn3cnc(-c4nc(-c5ccc(F)cc5)no4)c3)cc2)c1 | 1%
46 | O=C1Nc2ccc(F)cc2/C1=N\Nc1ccc(C(=O)N2CCCC2COc2ccc(F)cc2)cc1 (stereo not given) | 3%
47 | O=C(Nc1c(C(=O)c2ccccc2)oc2ccccc12)c1cc(-c2ccc3c(c2)OCCO3)on1 | 18%
48 | CSc1cccc(NC(=O)NC2CCN(c3ccc(F)cc3)C2=O)c1 (stereo not given) | 2%
49 | O=C(Nc1ccc2c(c1)OCCO2)c1cccc(Nc2cc(-c3ccc(F)cc3)ncn2)c1 | 4%
50 | CCc1ccc(NC(=O)c2c(O)c3ccccc3n(CC)c2=O)cc1 | 46%
51 | COc1cccc(NC(=O)CSc2nc3ccc(NC(=O)Nc4cc(C)cc(C)c4)cc3s2)c1 | 20%
52 | CCNc1c(NC(=O)NCc2ccc(C)cc2)c(=O)oc2ccccc12 | -3%

The remaining lines, values ahead:

Row | inhibition | SMILES
53 | -6% | COc1cc(NC(=O)N2CCN(c3cc(-c4ccc(C)cc4)ncn3)CC2)cc(OC)c1
54 | 13% | Cc1ccc(-n2ncc(C(C)(C)C)c2NC(=O)CN(C)C(=O)Nc2ccccc2C)c(C)c1
55 | 28% | Cc1cccc(N2CCN(c3ncnc4onc(C)c34)CC2)c1C
56 | 0% | CN(C)c1ccc(CNC(=O)C2CCN(c3ccc4nncn4n3)CC2)cc1
57 | 6% | Cc1ccc2sc(NNC(=O)c3ccc(S(=O)(=O)CN4CCc5ccccc5C4)cc3)nc2c1C
58 | 81% | Fc1ccc(N2CCN(c3ncnc4sc5c(c34)CCCC5)CC2)cc1
59 | 24% | CNc1nccc(N2CCC(CC(=O)NCc3nc4ccccc4n3C)CC2)n1
60 | 7% | Cc1ccc(NC(=O)CCc2nc3ccncc3[nH]2)cc1F
61 | 1% | Cc1noc2ncnc(N3CCC(C(=O)NCCCN4CCOCC4)CC3)c12
62 | 14% | Cc1oc2ccccc2c1C(=O)CSc1nc(O)c2c(n1)NCN2
63 | 0% | Cc1cc(C)c2c(n1)SCCN2C(=O)Nc1ccc(C(=O)NCc2cccc(Cl)c2)cc1
64 | 5% | CCOc1ccc(NC(=O)N2CCCC(c3cccc(C(=O)Nc4cccc(Cl)c4)c3)C2)cc1 (stereo not given)
65 | 75% | Cc1ccc(Cl)cc1N1CCN(c2ncnc3sc(C(=O)O)c(C)c23)CC1
66 | -6% | CC(=O)c1ccc(NC(=O)COc2cc(C(F)(F)F)c3c(C)nn(-c4ccc(C)cc4)c3n2)cc1
67 | 3% | COc1ccc(CNC(=O)C2CCCN(c3cnc4nccnc4c3)C2)cc1 (stereo not given)
68 | -4% | Cc1ccc(-c2nc(C)cc(OCC(=O)Nc3ccc(C#N)cc3)n2)cc1
69 | 9% | CCOC(=O)c1c(C)oc2ncnc(NCCc3ccc(OCC)cc3)c12
70 | 97% | Cc1nc(Nc2ccc(NC(=O)Nc3cccc(C(F)(F)F)c3)cc2)cc(N2CCCCC2)n1
71 | 14% | O=C(Cc1ccccc1F)Nc1ccc2ncnc(N3CCCC3)c2c1
72 | 4% | Cc1ccc(Cl)cc1N1CCN(C(=O)c2noc3ncnc(N4CCCC4)c23)CC1
73 | 99% | COc1ccc(CC(=O)N2CCN(c3ccc(NC(=O)Nc4cccc(C(F)(F)F)c4)cc3)CC2)cc1
74 | 101% | O=C(NCC1CCN(c2nsc(Cc3ccc(F)cc3)n2)CC1)Nc1ccc(Cl)c(Cl)c1
75 | 14% | O=C(Cc1ccc(NC(=O)N2CCSc3ncccc32)cc1)NCc1cccc(Cl)c1
76 | -7% | Cc1ccc(N2Cc3c(ncnc3N3CCCC(C(=O)NCc4cccc(C(F)(F)F)c4)C3)N2)cc1 (stereo not given)
77 | 15% | O=C(Nc1ccco1)NC1CCN(c2ncnc3c2CCC3)C1 (stereo not given)
78 | 19% | Fc1ccc(-c2noc3ncnc(N4CCN(c5ccccn5)CC4)c23)cc1
79 | 3% | NNc1cc(N2CCN(c3ccccc3F)CC2)ncn1
80 | 11% | CCOC(=O)Cc1ccc(NC(=O)Nc2cc3c(cc2N2CCCC2)n(CC)c(=O)n3CC)cc1

Target: CDK8/Cyclin C (Homo sapiens, UniProt P49336)
Experiment: Inhibition of Alexa647 tracer binding to full length recombinant human His-tagged CDK8/Cyclin C expressed in baculovirus expression system preincubated for 20 mins followed by tracer addition measured after 60 mins by TR-FRET based Lanthascreen assay

CDK8/Cyclin C, sequence (P49336 whole entry): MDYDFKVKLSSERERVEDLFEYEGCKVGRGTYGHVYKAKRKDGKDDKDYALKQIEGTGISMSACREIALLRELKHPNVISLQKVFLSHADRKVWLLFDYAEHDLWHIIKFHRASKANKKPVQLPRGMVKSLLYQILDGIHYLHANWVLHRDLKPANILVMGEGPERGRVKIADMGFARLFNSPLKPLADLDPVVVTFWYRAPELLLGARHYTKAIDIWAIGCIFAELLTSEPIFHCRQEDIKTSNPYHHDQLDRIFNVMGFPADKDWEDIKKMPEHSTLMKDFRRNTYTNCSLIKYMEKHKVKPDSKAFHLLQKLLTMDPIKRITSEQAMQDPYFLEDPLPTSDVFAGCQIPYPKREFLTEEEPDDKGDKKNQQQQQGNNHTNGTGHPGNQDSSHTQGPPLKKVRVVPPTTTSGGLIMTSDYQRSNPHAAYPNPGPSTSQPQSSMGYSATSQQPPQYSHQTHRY
CDK8/Cyclin C, sequence (P24863 whole entry, further chain): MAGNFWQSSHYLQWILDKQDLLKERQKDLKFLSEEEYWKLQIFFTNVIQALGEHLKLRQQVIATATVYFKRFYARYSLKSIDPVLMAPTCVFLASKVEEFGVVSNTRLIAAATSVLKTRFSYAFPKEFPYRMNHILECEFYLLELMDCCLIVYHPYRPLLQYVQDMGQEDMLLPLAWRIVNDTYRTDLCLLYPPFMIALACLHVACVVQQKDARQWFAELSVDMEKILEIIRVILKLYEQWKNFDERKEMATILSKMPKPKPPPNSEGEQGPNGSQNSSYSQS

Row | SMILES | IC50
81 | O=C(Nc1cccc(C(F)(F)F)c1)Nc1nnc(SCc2nc3ccccc3[nH]c2=O)s1 | 9 nM
82 | CC(=O)c1cccc(NC(=O)c2nnn(-c3ccc4noc(-c5ccccc5)c4c3)c2C)c1 | 93 nM

Other lines, results leading:

Row | IC50 | SMILES
83 | 36 nM | COc1ccc(CC(=O)N2CCN(c3ccc(NC(=O)Nc4cccc(C(F)(F)F)c4)cc3)CC2)cc1
84 | 6.5 nM | O=C(NCC1CCN(c2nsc(Cc3ccc(F)cc3)n2)CC1)Nc1ccc(Cl)c(Cl)c1
85 | 183 nM | O=C(Nc1cccc(Cl)c1)Nc1nnc(CC(=O)N2CCCC2)s1

Reference: ChEMBL document CHEMBL4004862, “Discovery of novel CDK8 inhibitors using multiple crystal structures in docking-based virtual screening” (Eur J Med Chem, 2017)
